We go through 3 compounds from patent US8323917B2, “Method of screening for compounds that inhibit the enzymatic activity of GWT1 gene product” (priority 2002, dated 2012).

Assay [1] concerns the target T1, GWT1 gene product (Gwt1 protein) in membrane fraction (Saccharomyces cerevisiae, UniProt P47026).
T1 construct: made in house; host or cells: S. cerevisiae Δgwt1 strain carrying the YEp352GAPIIClaIΔSal-GWT1 overexpression plasmid; total membrane fraction
Description: acylated GPI detection system (GPI acylation assay, TLC of GlcN-(acyl)PI). Type of assay: biochemical, S. cerevisiae. Particulars: UDP-[14C]GlcNAc, TLC/autoradiography, FIGS. 3 and 4. As to the method:
Wild-type S. cerevisiae strain, the GWT1 gene-deficient strain Δgwt1, and the strain Δgwt1 into which the GWT1 overexpression plasmid was introduced were each cultured in 100 ml of YPD medium shaken at 24° C., and then harvested in the middle logarithmic growth phase (0D600=1˜3). The fungal cells were washed with TM buffer (50 mM Tris-HCl (pH 7.5) and 2 mM MgCl2), and then suspended in 2 ml of TM buffer+protease inhibitor (1 tablet of Complete™, protease inhibitor, (Roche)/25 ml). 1.5 ml of glass beads was added to the suspension. The mixture was vortexed for 30 seconds, and then placed on ice for 30 seconds. These procedures were repeated ten times to disrupt the fungal cells. The cell homogenate was transferred into a new tube, and centrifuged at 1000 g at 4° C. for five minutes to precipitate the glass beads and undisrupted fungal cells. The supernatant was transferred to another tube, and centrifuged at 13 000g at 4° C. for 20 minutes to precipitate the membrane fraction comprising organelles (total membrane fraction). The resulting precipitate was used as the membrane fraction.
The membrane fraction preparation (300 μg protein) was diluted with a buffer consisting of 50 mM Tris-HCl (pH7.5), 2 mM MgCl2, 2 mM MnCl2, 1 mM ATP, 1 mM Coenzyme A, 21 μg/ml tunicamycin, 10 μM nikkomycin Z, and 0.5 mM Dithiothreitol. The solution was adjusted to a total of 140 μl for use as a reaction solution. After incubating the solution at 24° C. for 15 minutes, 15 μCi UDP-[^14C]GlcNAc was added to the tube and then incubated at 24° C. for another one hour. 1 ml of chloroform:methanol (1:2) was added to the solution and stirred to stop the reaction. Then, lipid was extracted from the solution, dried, and desalted by butanol extraction. Acylated GPI (GlcN-(acyl)PI), non-acylated GPI (GlcN-PI), and GPI which was neither acylated nor deacylated (GlcNAc-PI) were separated by thin-layer chromatography (HCl3/CH3OH/1 M NH4OH (10:10:3)). Each spot was detected by autoradiography. […]

For a further assay, the system named is GWT1 gene products. Particulars: reporter system reflecting the activity of the GWT1 gene products; cited from earlier work.

T1 sequence (P47026 whole entry): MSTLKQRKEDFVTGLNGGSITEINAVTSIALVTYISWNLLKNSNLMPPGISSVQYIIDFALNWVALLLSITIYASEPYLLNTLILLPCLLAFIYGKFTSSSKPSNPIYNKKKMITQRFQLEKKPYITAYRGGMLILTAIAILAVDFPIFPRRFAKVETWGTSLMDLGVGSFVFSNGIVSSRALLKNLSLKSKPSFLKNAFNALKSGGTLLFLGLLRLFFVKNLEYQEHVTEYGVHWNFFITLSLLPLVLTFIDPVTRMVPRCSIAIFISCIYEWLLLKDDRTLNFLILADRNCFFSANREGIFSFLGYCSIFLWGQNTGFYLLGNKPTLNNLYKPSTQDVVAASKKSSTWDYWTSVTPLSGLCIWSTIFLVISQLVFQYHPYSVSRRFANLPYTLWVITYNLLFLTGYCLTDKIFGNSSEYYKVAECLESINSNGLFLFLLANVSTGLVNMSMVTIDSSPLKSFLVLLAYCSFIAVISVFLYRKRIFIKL

As to `CCCCc1ccc(Cc2nccc3ccccc23)c(O)c1` [Example B85, 5-butyl-2-(1-isoquinolylmethyl)phenol], the “spot intensity of acylated GPI (GlcN-(acyl)PI)” value (“spot intensity of acylated GPI” for short) in assay [1] was “dose-dependent decrease”.

Consider `CCCCc1ccc(Cc2nccc3ccccc23)cc1` [Example B2, 1-(4-butylbenzyl)isoquinoline], for which the “spot intensity of acylated GPI” value in assay [1] is on record as “dose-dependent decrease”.

With `CC(=O)N(C)CCCc1ccc(Cc2nccc3ccccc23)cc1` [Example B73, N-(3-(4-(1-isoquinolylmethyl)phenyl)propyl)-N-methylacetamide], the “spot intensity of acylated GPI” value in assay [1] is given as “not observed to decrease”. Also, the “inhibitory activity IC50 (Table 1 in WO 02/04626)” value in the assay on GWT1 gene products is 50 µg/mL.
